Values quoted from earlier work as cited in patent US20250325495A1, “SILK NANOPARTICLE SYNTHESIS: TUNING SIZE, DISPERSITY, AND SURFACE CHEMISTRY FOR DRUG DELIVERY” (Trustees of Tufts College, priority 2022, published 2025).

Tested on: GBM cell lines
Conditions: compared with temozolomide

Q: For `COc1cccc2c1C(=O)c1c(O)c3c(c(O)c1C2=O)C[C@@](O)(C(=O)CO)C[C@@H]3O[C@H]1C[C@H](N)[C@H](O)[C@H](C)O1` [doxorubicin], which cytotoxic effects is on record?
A: superior cytotoxic effects
